Earlier results, collected in US8435497B2, “Formoterol of and ciclesonide combination” (Takeda GmbH, priority 2003, dated 2013).

How the values were obtained:
[1] = relative to budesonide
[2] = not given; remark: listed apart in the source

Structure (SMILES): CC(C)C(=O)OCC(=O)[C@@]12O[C@H](C3CCCCC3)O[C@@H]1C[C@H]1[C@@H]3CCC4=CC(=O)C=C[C@]4(C)[C@H]3[C@@H](O)C[C@@]12C [Ciclesonide, [11β,16α(R)]-16,17-[(Cyclohexylmethylen)bis(oxy)]-11-hydroxy-21-(2-methyl-1-oxopropoxy)pregna-1,4-dien-3,20-dion]
- anti-inflammatory activity compared with budesonide [1]: higher
- metabolism by liver oxidases (liver oxidases): very high
- concentration of the drug in the lungs (lungs): high
- absorption after oral administration (oral administration): only moderately absorbed
- plasma half-life (plasma): low plasma half-life
- systemic activity ([2]; in vivo): low systemic activity
- systemic activity compared with budesonide ([2]; relative to budesonide): three times lower
